# Test results reported in PMC6271077, “Synthesis, Anticancer and Antibacterial Activity of Salinomycin N-Benzyl Amides” (Molecules, 2014).
# Tests used:
# LoVo/dx = assay: Antiproliferative SRB assay, LoVo/dx; type: cell-based, human
# BALB/3T3 = assay: Antiproliferative SRB assay, normal fibroblasts BALB/3T3; type: cell-based; conditions: Mus musculus, BALB/3T3, normal murine embryonic fibroblasts, 72 h, mean ± SD, read-out: IC50 BALB/3T3 (normal cells)
# Description: Four human cancer cell lines and one normal cell line were used to evaluate anticancer activity of SAL and its N-benzyl amides: human acute promyelocytic leukemia (HL-60) and its vincristine resistant subline (HL-60/vinc), human colon adenocarcinoma cell lines sensitive (LoVo) and resistant to doxorubicin (LoVo/dx) as well as also normal murine embryonic fibroblast cell line (BALB/3T3). The BALB/3T3 cell line was purchased from the American Type Culture Collection (ATCC Rockville, MD, USA), HL-60 cell line from European Type Culture Collection by courtesy of Professor Spik and Dr Mazurier (Laboratory of Biological Chemistry USTL, Lille, France) and HL-60/vinc, LoVo and LoVo/dx by courtesy of Prof. E. Borowski (Technical University of Gdańsk, Gdańsk, Poland). All the cell lines are maintained in the Institute of Immunology and Experimental Therapy (IIET), Wrocław, Poland. […]
# After 72 h of incubation with tested compounds the cells were fixed in situ by gently adding of 50 µL per well of cold 50% trichloroacetic acid TCA (Avantor Performance Materials, City, Poland) and were incubated at 4 °C for 1 h. […] Absorbance of each solution was read at Synergy H4 photometer (BioTek Instruments, Winooski, VT, USA) at 540 nm wavelength. […]
# HL-60/vinc = assay: Antiproliferative MTT assay, HL-60/vinc; type: cell-based, human
# Summary of the method: (§1)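 Leukemia cells seeded at 10^4 per well and exposed 24 h later to four concentrations (100–0.1 µg/mL) for 72 h; HL-60/vinc cultured with doxorubicin. MTT added 4 h, formazan lysed 24 h, absorbance 570 nm; IC50 from triplicates, ≥3 independent experiments.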
# HL-60 = assay: Antiproliferative MTT assay, HL-60; type: cell-based, human
# Summary of the method: as §1
# LoVo = assay: Antiproliferative SRB assay, LoVo; type: cell-based, human
compound,measurement,setting,value
"COc1cccc2c1C(=O)c1c(O)c3c(c(O)c1C2=O)C[C@@](O)(C(=O)CO)C[C@@H]3O[C@H]1C[C@H](N)[C@H](O)[C@H](C)O1 [doxorubicin, reference compound]",IC50,"LoVo/dx; Homo sapiens, LoVo/DX, doxorubicin resistant subline, 72 h, SRB, mean ± SD, read-out: IC50 LoVo/dx",5460 ± 1560 nM
same,IR LoVo/DX,LoVo/dx; IR = IC50 LoVo/dx / IC50 LoVo,36.40
same,SI LoVo/DX,LoVo/dx; SI = IC50 BALB/3T3 / IC50 LoVo/dx,0.03
same,IC50,BALB/3T3,180 ± 70 nM
same,IC50,"HL-60/vinc; Homo sapiens, HL60/vinc, vincristine-resistant subline, 72 h, MTT, mean ± SD, NA: not active in concentrations used (up to 100 µg/mL), read-out: IC50 HL-60/vinc",880 ± 260 nM
same,IR HL-60/vinc,HL-60/vinc; IR = IC50 HL-60/vinc / IC50 HL-60,22.00
same,SI HL-60/vinc,HL-60/vinc; SI = IC50 BALB/3T3 / IC50 HL-60/vinc,0.20
same,IC50,"HL-60; Homo sapiens, HL-60, 72 h, MTT, mean ± SD, NA: not active in concentrations used (up to 100 µg/mL), read-out: IC50 HL-60",40 ± 40 nM
same,SI HL-60,HL-60; SI = IC50 BALB/3T3 / IC50 HL-60,4.50
same,IC50,"LoVo; Homo sapiens, LoVo, 72 h, SRB, mean ± SD, read-out: IC50 LoVo",150 ± 60 nM
same,SI LoVo,LoVo; SI = IC50 BALB/3T3 / IC50 LoVo,1.20
